The results in this text go back to patent US8399497B2, “Thiazole derivatives and use thereof” (Merck Serono SA, priority 2005, dated 2013).

The target of test [1] is Human recombinant GST-PI3Kγ (Homo sapiens, UniProt P48736). Description: High throughput PI3K lipid kinase assay (SPA, neomycin-coated beads). It counts as biochemical. An excerpt:
a) High Throughput PI3K Lipid Kinase Assay (Binding Assay):
The efficacy of compounds of the invention in inhibiting the PI3K induced-lipid phosphorylation may be tested in the following binding assay.
The assay combines the scintillation proximity assay technology (SPA, Amersham) with the capacity of neomycin (a polycationic antibiotic) to bind phospholipids with high affinity and specificity. The Scintillation Proximity Assay is based on the properties of weakly emitting isotopes (such as ^3H, ^125I, ^33P). Coating SPA beads with neomycin allows the detection of phosphorylated lipid substrates after incubation with recombinant PI3K and radioactive ATP in the same well, by capturing the radioactive phospholipids to the SPA beads through their specific binding to neomycin.
To a 384 wells MTP containing 5 μl of the test compound of Formula (I) (solubilized in 6% DMSO; to yield a concentration of 100, 30, 10, 3, 1, 0.3, 0.1, 0.03, 0.01, 01 μM of the test compound), the following assay components are added. 1) 5 μl (58 ng) of Human recombinant GST-PI3Kγ (in Hepes 40 mM, pH 7.4, DTT 1 mM and ethylenglycol 5%) 2) 10 μl of lipid micelles and 3) 10 μl of Kinase buffer ([^33P]γ-ATP 45 μM/60 nCi, MgCl2 30 mM, DTT 1 mM, β-Glycerophosphate 1 mM, Na3VO4 100 μM, Na Cholate 0.3%, in Hepes 40 mM, pH 7.4). After incubation at room temperature for 180 minutes, with gentle agitation, the reaction is stopped by addition of 60 μl of a solution containing 100 μg of neomycin-coated PVT SPA beads in PBS containing ATP 10 mM and EDTA 5 mM. The assay is further incubated at room temperature for 60 minutes with gentle agitation to allow binding of phospholipids to neomycin-SPA beads. After precipitation of the neomycin-coated PVT SPA beads for 5 minutes at 1500×g, radioactive PtdIns(3)P is quantified by scintillation counting in a Wallac MicroBeta™ plate counter.
The values indicated in Table II below refer to the IC50 (μM) with respect to PI3Kγ, i.e. the amount necessary to achieve 50% inhibition of said target. Said values show a considerable inhibitory potency of thiazole compounds with regard to PI3Kγ.

Test [2] deals with PI3K induced Akt/PKB phosphorylation in Raw 264-7 macrophages. Put plainly: Cell based ELISA of Akt/PKB phosphorylation in macrophages after Complement 5a stimulation. The following applies: Mus musculus, RAW264.7, 5 min, 50 nM Complement 5a for 5 minutes, read-out: Cell Assay (P-Akt, Elisa) IC50. How it is done:
b) Cell Based ELISA to Monitor PI3K Inhibition:
The efficacy of compounds of the invention in inhibiting the PI3K induced Akt/PKB phosphorylation may be tested in the following cell based assay.
Measurement of Akt/PKB phosphorylation in macrophages after stimulation with Complement 5a: Raw 264: Raw 264-7 macrophages (cultured in DMEM-F12 medium containing 10% Fetal Calf serum and antibiotics) are plated at 20,000 cells/well in a 96 MTP 24 h before cell stimulation. Prior to the stimulation with 50 nM of Complement 5a during 5 minutes, Cells are serum starved for 2 h, and pretreated with inhibitors for 20 minutes. After stimulation cells are fixed in 4% formaldehyde for 20 minutes and washed 3 times in PBS containing 1% Triton X-100 (PBS/Triton). Endogenous peroxidase is blocked by a 20 minutes incubation in 0.6% H2O2 and 0.1% Sodium Azide in PBS/Triton and washed 3 times in PBS/Triton. Cells are then blocked by 60 minutes incubation with 10% fetal calf serum in PBS/Triton. Next, phosphorylated Akt/PKB is detected by an overnight incubation at 4° C. with primary antibody (anti phospho Serine 473 Akt IHC, Cell Signaling) diluted 800-fold in PBS/Triton, containing 5% bovine serum albumin (BSA). After 3 washes in PBS/Triton, cells are incubated for 60 minutes with a peroxidase conjugated goat-anti-rabbit secondary antibody (1/400 dilution in PBS/Triton, containing 5% BSA), washed 3 times in PBS/Triton, and 2 times in PBS and further incubated in 100 μl of luminescent substrate reagent solution (Pierce) for 2 minutes, followed by the reading (1 s/well).
The values indicated in Table III below reflect the percentage of inhibition of AKT phoshorylation as compared to basal level. Said values show a clear effect of the thiazole compounds on the activation of AKT phosphorylation in macrophages.
(In general: ELISA stands for enzyme-linked immunosorbent assay.)

A further test deals with Neutrophil recruitment. Description: Thioglycollate-induced peritoneal cavity cell recruitment model, neutrophils. Conditions: 10 mg/kg orally, lavage 4 h after thioglycollate. It counts as in vivo, C3H mice. How it is done:
(§1) Thioglycollate-Induced Pertioneal Cavity Cell Recruitment Model
(§2) The in vivo efficacy of compounds of the invention in inhibiting the migration of leukocytes upon intraperitoneal challenge of thioglycollate may be tested with the following assay.
(§3) 8-10 weeks old female C3H mice are fasted during 18 hours. 15 minutes prior the intraperitoneal injection of thioglycollate (1.5%, 40 ml/kg), the mice are treated orally with Thiazoles of Formula (I). Control mice receive CMC/Tween as vehicle (10 ml/kg). The mice are then sacrificed by CO2 inhalation and the peritoneal cavity is washed two times with 5 ml of ice-cold PBS/1 mM EDTA. The lavages are done 4 hours or 48 hours after thioglycollate challenge to evaluate neutrophils or macrophages recruitment, respectively. The white blood cells (neutrophils, lymphocytes or macrophages) are counted using a Beckman Coulter® A ^cT 5diff™. Dexamethasone is used as reference drug.

The next test deals with Macrophage recruitment. Put plainly: Thioglycollate-induced peritoneal cavity cell recruitment model, macrophages. It counts as in vivo, C3H mice. Conditions: 10 mg/kg orally, lavage 48 h after thioglycollate. How it is done: as §1, §2, §3
In test [3] the test system is Collagen-induced arthritis. Description: Collagen-induced arthritis, CIA (mouse). The class given is in vivo, DBA/1 mice. The following applies: twice a day, 7 days.

pIC50: −log10 of the molar value. Where two headings read alike, the source gives them in different places.

Chain of Human recombinant GST-PI3Kγ (P48736 whole entry): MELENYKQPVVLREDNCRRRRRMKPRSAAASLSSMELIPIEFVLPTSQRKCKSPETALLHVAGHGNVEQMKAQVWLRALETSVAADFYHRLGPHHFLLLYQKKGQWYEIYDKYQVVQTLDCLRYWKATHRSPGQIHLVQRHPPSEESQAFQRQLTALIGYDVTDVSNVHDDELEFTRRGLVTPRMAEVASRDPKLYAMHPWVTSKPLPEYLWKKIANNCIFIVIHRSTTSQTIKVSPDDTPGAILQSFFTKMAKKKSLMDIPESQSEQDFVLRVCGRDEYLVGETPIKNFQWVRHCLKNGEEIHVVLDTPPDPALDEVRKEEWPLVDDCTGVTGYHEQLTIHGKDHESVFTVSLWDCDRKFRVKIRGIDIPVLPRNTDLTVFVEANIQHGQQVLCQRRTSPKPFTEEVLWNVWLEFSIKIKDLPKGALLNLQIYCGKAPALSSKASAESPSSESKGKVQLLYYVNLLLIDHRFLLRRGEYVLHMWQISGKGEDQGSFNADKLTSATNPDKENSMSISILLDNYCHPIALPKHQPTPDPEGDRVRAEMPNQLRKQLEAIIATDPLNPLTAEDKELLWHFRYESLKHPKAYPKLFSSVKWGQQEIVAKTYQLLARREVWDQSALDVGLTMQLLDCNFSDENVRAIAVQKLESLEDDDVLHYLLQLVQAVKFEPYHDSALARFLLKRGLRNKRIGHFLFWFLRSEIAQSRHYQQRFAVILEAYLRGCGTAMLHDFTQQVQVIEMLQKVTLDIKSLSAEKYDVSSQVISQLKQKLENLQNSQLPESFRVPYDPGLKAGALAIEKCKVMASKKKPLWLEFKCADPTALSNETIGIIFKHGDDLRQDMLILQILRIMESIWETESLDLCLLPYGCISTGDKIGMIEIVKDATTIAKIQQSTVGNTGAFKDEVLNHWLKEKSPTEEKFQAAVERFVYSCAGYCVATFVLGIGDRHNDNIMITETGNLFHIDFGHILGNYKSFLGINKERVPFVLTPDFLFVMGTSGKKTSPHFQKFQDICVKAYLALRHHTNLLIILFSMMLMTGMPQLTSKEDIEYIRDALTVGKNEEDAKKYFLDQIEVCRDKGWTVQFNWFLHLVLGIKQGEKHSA

Usually pIC50 stands for −log10 of the IC50, conventionally taken in molar units. Regarding `CC(=O)Nc1nc(C)c(-c2csc(S(=O)(=O)N3CCOCC3)c2)s1` [Example 46, N-{4-methyl-5-[5-(morpholin-4-ylsulfonyl)-3-thienyl]-1,3-thiazol-2-yl}acetamide], the figures for the negative logarithm of the IC50 (pIC50) in test [1] and in test [2] were 7.57 and less than 4.52, respectively. Also, the “% inhibition of Neutrophil recruitment at 10 mg/kg after 4 h” value (“% inhibition of Neutrophil recruitment” below) in the test with Neutrophil recruitment worked out at 36%.
For `CC(=O)Nc1nc(C)c(-c2csc(S(=O)(=O)N3CCN(C)CC3)c2)s1` [Example 29, N-(4-methyl-5-{5-[(4-methylpiperazin-1-yl)sulfonyl]-3-thienyl}-1,3-thiazol-2-yl)acetamide] the same measures were 7.55, 6.34 and 28%.
As for `C#CCNS(=O)(=O)c1ccc(-c2sc(NC(C)=O)nc2C)s1` [Example 1, N-(4-methyl-5-{5-[(prop-2-yn-1-ylamino)sulfonyl]-2-thienyl}-1,3-thiazol-2-yl)acetamide], the pIC50 in test [1] was 6.92; in test [2], 6.18.
For `CC(=O)Nc1nc(C)c(-c2csc(S(=O)(=O)NCCN(C)C)c2)s1` [Example 23, N-{5-[5-({[2-(dimethylamino)ethyl]amino}sulfonyl)-3-thienyl]-4-methyl-1,3-thiazol-2-yl}acetamide] the same measures were 7.55 and 6.32.
Regarding `CC(=O)Nc1nc(C)c(-c2csc(S(=O)(=O)N3CCC(O)CC3)c2)s1` [Example 39, N-(5-{5-[(4-hydroxypiperidin-1-yl)sulfonyl]-3-thienyl}-4-methyl-1,3-thiazol-2-yl)acetamide], the pIC50 in test [1] is 7.85; in test [2], 7.30; in test [2] (re-testing), 6.49. Also, the “% inhibition of Neutrophil recruitment” value with Neutrophil recruitment is 48%. Further, the “% inhibition of Macrophage recruitment at 10 mg/kg after 48 h” value in the test on Macrophage recruitment was found to be 43%. For the same compound, the entries for the “Reduction of total clinical score [%]” value in test [3] (10 mg/kg orally), in test [3] (30 mg/kg orally) and in test [3] (60 mg/kg orally) were 30%, 50% and 75%, respectively.
With `CC(=O)Nc1nc(C)c(-c2ccc(S(=O)(=O)NCCCN(C)C)s2)s1` [Example 10, N-{5-[5-({[3-(dimethylamino)propyl]amino}sulfonyl)-2-thienyl]-4-methyl-1,3-thiazol-2-yl}acetamide], the values for the negative logarithm of the IC50 (pIC50) in test [1] and in test [2] were 6.54 and 5.89, respectively. For the same compound, the “% inhibition of Neutrophil recruitment” value in the test with Neutrophil recruitment was 58%.
Consider `CC(=O)Nc1nc(C)c(-c2ccc(S(=O)(=O)NCCN3CCOCC3)s2)s1` [Example 9, N-[4-methyl-5-(5-{[(2-morpholin-4-ylethyl)amino]sulfonyl}-2-thienyl)-1,3-thiazol-2-yl]acetamide], for which the negative logarithm of the IC50 (pIC50) is 6.80 in test [1] and 6.07 in test [2]. The “% inhibition of Neutrophil recruitment” value with Neutrophil recruitment turned out to be 48%.
On to `CC(=O)Nc1nc(C)c(-c2csc(S(=O)(=O)N3CCCC(O)C3)c2)s1` (centres unmarked) [Example 48, N-(5-{5-[(3-hydroxypiperidin-1-yl)sulfonyl]-3-thienyl}-4-methyl-1,3-thiazol-2-yl)acetamide], for which the pIC50 in test [2] is 6.82.
For the compound `CC(=O)Nc1nc(C)c(-c2ccc(S(=O)(=O)NC3CCN(C)CC3)s2)s1` [Example 4, N-[4-methyl-5-(5-{[(1-methylpiperidin-4-yl)amino]sulfonyl}-2-thienyl)-1,3-thiazol-2-yl]acetamide], the negative logarithm of the IC50 (pIC50) in test [1] is 6.53.
